The text below walks through data of patent publication US20250163037A1, “SUBSTITUTED ISOXAZOLINE DERIVATIVES” (BASF SE, priority 2022, published 2025).

What all share (format): in vivo
Assay [1] concerns Diamond Back Moth (Plutella xylostella). Kind of assay: B.5 Diamond Back Moth, cabbage leaf disc dip. The conditions noted are these: for B.5, 10 ppm: comparative experiment, test B.5 (mortality), unit not given; for mortality at 300 ppm: Plutella xylostella, foliar, 3rd instar larvae, 72 hours after treatment, read-out: mortality in comparison with untreated controls. On the procedure:
The active compound was dissolved at the desired concentration in a mixture of 1:1 (vol:vol) distilled water:acetone. Surfactant (Kinetic) was added at a rate of 0.01% (vol/vol). The test solution was prepared at the day of use. Cabbage leaf discs (60 mm in diameter) were dipped in test solution and air-dried. Treated leaves were placed in petri dishes lined with moistened filter paper and inoculated with ten 3rd instar larvae. Mortality was recorded 72 hours after treatment. Feeding damages were also recorded using a scale of 0-100%.

Assay [2] concerns Green Peach Aphid (Myzus persicae). Kind of assay: B.2 Green Peach Aphid (mixed life stages), systemic artificial diet under membrane. The conditions noted are these: 72 h, read-out: mortality in comparison with untreated controls. An excerpt: For evaluating control of Green Peach Aphid through systemic means the test unit consisted of 96-well-microtiter plates containing liquid artificial diet under an artificial membrane. The compounds were formulated using a solution containing 75% v/v water and 25% v/v DMSO. Different concentrations of formulated compounds were pipetted into the aphid diet, using a custom-built pipette, at two replications. After application, 5-8 adult aphids were placed on the artificial membrane inside the microtiter plate wells. The aphids were then allowed to suck on the treated aphid diet and incubated at about 23±1° C. and about 50±5% relative humidity for 3 days. Aphid mortality and fecundity was then visually assessed.

Assay [3] concerns Tobacco Budworm (Heliothis virescens). Kind of assay: B.3 Tobacco Budworm, microtiter plate with insect diet and eggs. The conditions noted are these: 120 h, egg and larval mortality after 5 days, read-out: mortality in comparison with untreated controls. As to the method:
For evaluating control of Tobacco Budworm, the test unit consisted of 96-well-microtiter plates containing an insect diet and 15-25 H. virescens eggs. The compounds were formulated using a solution containing 75% v/v water and 25% v/v DMSO. Different concentrations of formulated compounds were sprayed onto the insect diet at 10 μl, using a custom-built micro atomizer, at two replications. After application, microtiter plates were incubated at about 28±1° C. and about 80±5% relative humidity for 5 days. Egg and larval mortality was then visually assessed.

In assay [4] the test system is Southern Armyworm (Spodoptera eridania). Kind of assay: B.7 Southern Armyworm, 2nd instar larvae, sprayed lima bean plants. The conditions noted are these: 96 h, 4 days after treatment, read-out: mortality in comparison with untreated controls. As to the method:
The active compounds were formulated by a Tecan liquid handler in 100% cyclohexanone as a 10′000 ppm solution supplied in tubes. The 10′000 ppm solution was serially diluted in 100% cyclohexanone to make interim solutions. These served as stock solutions for which final dilutions were made by the Tecan in 50% acetone:50% water (v/v) into 10 or 20 ml glass vials. A nonionic surfactant (Kinetic®) was included in the solution at a volume of 0.01% (v/v). The vials were then inserted into an automated electrostatic sprayer equipped with an atomizing nozzle for application to plants/insects. Lima bean plants (variety Sieva) were grown 2 plants to a pot and selected for treatment at the 1st true leaf stage. Test solutions were sprayed onto the foliage by an automated electrostatic plant sprayer equipped with an atomizing spray nozzle. The plants were dried in the sprayer fume hood and then removed from the sprayer. Each pot was placed into perforated plastic bags with a zip closure. Ten to 11 armyworm larvae were placed into the bag and the bags zipped closed. Test plants were maintained in a growth room at about 25° C. and about 20-40% relative humidity for 4 days, avoiding direct exposure to fluorescent light (14:10 light:dark photo-period) to prevent trapping of heat inside the bags. Mortality and reduced feeding were assessed 4 days after treatment, compared to untreated control plants.

Assay [5] concerns Boll Weevil (Anthonomus grandis). Kind of assay: B.1 Boll weevil, microtiter plate with insect diet and eggs. As to conditions: 120 h, egg and larval mortality after 5 days, read-out: mortality in comparison with untreated controls. On the procedure:
For evaluating control of boll weevil, the test unit consisted of 96-well-microtiter plates containing an insect diet and 5-10 A. grandis eggs.
The compounds were formulated using a solution containing 75% v/v water and 25% v/v DMSO. Different concentrations of formulated compounds were sprayed onto the insect diet at 5 μl, using a custom-built micro atomizer, at two replications.
After application, microtiter plates were incubated at about 25±1° C. and about 75±5% relative humidity for 5 days. Egg and larval mortality were then visually assessed.

Assay [6] deals with Orchid Thrips (Dichromothrips corbetti). Kind of assay: B.6 Orchid Thrips, floral-immersion technique. As to conditions: for B.6, 10 ppm: comparative experiment, test B.6 (percent mortality), unit not given; for mortality at 300 ppm: read-out: mortality in comparison with untreated controls. As to the method:
Dichromothrips corbetti adults used for bioassay were obtained from a colony maintained continuously under laboratory conditions. For testing purposes, the test compound was diluted in a 1:1 mixture of acetone:water (vol:vol), plus Kinetic at a rate of 0.01% v/v.
Thrips potency of each compound was evaluated by using a floral-immersion technique. Each orchid petal was dipped into treatment solution and allowed to dry in Petri dishes. Treated petals were placed into individual re-sealable plastic along with about 20 adult thrips. All test arenas were held under dark condition and a temperature of about 28° C. for duration of the assay. The percent mortality was recorded 72 hours after treatment.

Assay [7] deals with Yellow Fever Mosquito (Aedes aegypti). Kind of assay: whole plant or invertebrate. The conditions noted are these: 48 h, larval mortality after 2 days, read-out: mortality in comparison with untreated controls. On the procedure: For evaluating control of Yellow Fever Mosquito, the test unit consisted of 96-well-microtiter plates containing 200 μl of tap water per well and 5-15 freshly hatched A. aegypti larvae. The active compounds were formulated using a solution containing 75% (v/v) water and 25% (v/v) DMSO. Different concentrations of formulated compounds or mixtures were sprayed onto the insect diet at 2.5 μl, using a custom-built micro atomizer, at two replications.
After application, microtiter plates were incubated at 28±1° C., 80±5% RH for 2 days. Larval mortality was then visually assessed.

Assay [8] has as its system Silverleaf Whitefly (Bemisia argentifoli). Kind of assay: B.8 Silverleaf Whitefly (adults), sprayed cotton plants. The conditions noted are these: 72 h, 3 days after treatment, read-out: mortality in comparison with untreated controls. As to the method:
The active compounds were formulated by a Tecan liquid handler in 100% cyclohexanone as a 10,000-ppm solution supplied in tubes. The 10,000-ppm solution was serially diluted in 100% cyclohexanone to make interim solutions. These served as stock solutions for which final dilutions were made by the Tecan in 50% acetone:50% water (v/v) into 5 or 10 ml glass vials. A nonionic surfactant (Kinetic®) was included in the solution at a volume of 0.01% (v/v). The vials were then inserted into an automated electrostatic sprayer equipped with an atomizing nozzle for application to plants/insects. Cotton plants at the cotyledon stage (one plant per pot) were sprayed by an automated electrostatic plant sprayer equipped with an atomizing spray nozzle. The plants were dried in the sprayer fume hood and then removed from the sprayer. Each pot was placed into a plastic cup and about 10 to 12 whitefly adults (approximately 3-5 days old) were introduced. The insects were collected using an aspirator and a nontoxic Tygon® tubing connected to a barrier pipette tip. The tip, containing the collected insects, was then gently inserted into the soil containing the treated plant, allowing insects to crawl out of the tip to reach the foliage for feeding. Cups were covered with a reusable screened lid. […] Mortality was assessed 3 days after treatment, compared to untreated control 5 plants.

[9] abbreviates: 2500 ppm, aphid mortality after 3 days.
Setting [10] is: 300 ppm, adult thrips, 72 hours after treatment.

Where two headings read alike, the source gives them in different places.

One may read the mortality as the share of the test organisms that died.

As to `N#Cc1ccc(NC2=NOC(c3cc(Cl)cc(Cl)c3)(C(F)(F)F)C2)cc1-n1cncn1` (stereo not drawn) [I-1], the “B.5, 10 ppm” value in assay [1] came to 100. Besides, the mortality at 300 ppm in assay [1], in assay [4] and in assay [6] (setting [10]) was ≥ 75% each time. Besides, the mortality at 2500 ppm in assay [2] (setting [9]), in assay [3], in assay [5] and in assay [7] was ≥ 75% throughout. Besides, in assay [6], the “B.6, 10 ppm” value turned out to be 100.

On to `N#Cc1ccc(NC2=NOC(c3cc(Cl)c(F)c(Cl)c3)(C(F)(F)F)C2)cc1-n1cncn1` (stereo not drawn) [I-4, 4-[[5-(3,5-dichloro-4-fluoro-phenyl)-5-(trifluoromethyl)-4H-isoxazol-3-yl]amino]-2-(1,2,4-triazol-1-yl)benzonitrile], for which the mortality at 300 ppm in assay [6] (setting [10]) was ≥ 75%.

For `Fc1c(Cl)cc(C2(C(F)(F)F)CC(Nc3ccc(Cl)c(-n4cc(C(F)(F)F)cn4)c3)=NO2)cc1Cl` (stereo not drawn) [I-14, N-[4-chloro-3-[4-(trifluoromethyl)pyrazol-1-yl]phenyl]-5-(3,5-dichloro-4-fluoro-phenyl)-5-(trifluoromethyl)-4H-isoxazol-3-amine], the mortality at 300 ppm in assay [8] and in assay [6] (setting [10]) was ≥ 75% each time.

`Fc1c(Cl)cc(C2(C(F)(F)F)CC(Nc3ccc(Cl)c(-n4cnc(C(F)(F)F)c4)c3)=NO2)cc1Cl` (stereo not drawn) [I-16, N-[4-chloro-3-[4-(trifluoromethyl)imidazol-1-yl]phenyl]-5-(3,5-dichloro4-fluoro-phenyl)-5-(trifluoromethyl)-4H-isoxazol-3-amine]: the mortality at 300 ppm in assay [6] (setting [10]) is ≥ 75%.

On to `O=C(NCC(F)(F)F)c1cnn(-c2cc(NC3=NOC(c4cc(Cl)c(F)c(Cl)c4)(C(F)(F)F)C3)ccc2Cl)c1` (stereo not drawn) [I-18, 1-[2-chloro-5-[[5-(3,5-dichloro-4-fluoro-phenyl)-5-(trifluoromethyl)-4H-isoxazol-3-yl]amino]phenyl]-N-(2,2,2-trifluoroethyl)pyrazole-4-carboxamide], for which the mortality at 300 ppm in assay [6] (setting [10]) is ≥ 75%.

For `CCN(C1=NOC(c2cc(Cl)c(F)c(Cl)c2)(C(F)(F)F)C1)c1ccc(C#N)c(-n2cncn2)c1` (stereo not drawn) [I-20, 4-[[5-(3,5-dichloro-4-fluoro-phenyl)-5-(trifluoromethyl)-4H-isoxazol-3-yl]-ethyl-amino]-2-(1,2,4-triazol-1-yl)benzonitrile], the mortality at 300 ppm in assay [6] (setting [10]) was ≥ 75%.

As to `COCN(C1=NOC(c2cc(Cl)c(F)c(Cl)c2)(C(F)(F)F)C1)c1ccc(Cl)c(-n2cc(C(F)(F)F)cn2)c1` (stereo not drawn) [I-23, N-[4-chloro-3-[4-(trifluoromethyl)pyrazol-1-yl]phenyl]-5-(3,5-dichloro-4-fluoro-phenyl)-N-(methoxymethyl)-5-(trifluoromethyl)-4H-isoxazol-3-amine], the mortality at 300 ppm in assay [1], in assay [4] and in assay [6] (setting [10]) was ≥ 75% throughout.

In the case of `CCOC(=O)N(C1=NOC(c2cc(Cl)c(F)c(Cl)c2)(C(F)(F)F)C1)c1ccc(Cl)c(-n2cnc(C(F)(F)F)c2)c1` (stereo not drawn) [I-26, ethyl N-[4-chloro-3-[4-(trifluoromethyl)imidazol-1-yl]phenyl]-N-[5-(3,5-dichloro-4-fluoro-phenyl)-5-(trifluoromethyl)-4H-isoxazol-3-yl]carbamate], the mortality at 2500 ppm in assay [2] is ≥ 75%. Moreover, the mortality at 300 ppm in assay [6] (Thrips, 72 h) was ≥ 75%.

As for `Fc1c(Cl)cc(C2(C(F)(F)F)CC(Oc3ccc(Cl)c(-n4cncn4)c3)=NO2)cc1Cl` (stereo not drawn) [I-27, 3-[4-chloro-3-(1,2,4-triazol-1-yl)phenoxy]-5-(3,5-dichloro-4-fluoro-phenyl)-5-(trifluoromethyl)-4H-isoxazole], the mortality at 2500 ppm in assay [2] (setting [9]), in assay [3], in assay [5] and in assay [7] was ≥ 75% in each case. The mortality at 300 ppm in assay [4] and in assay [6] (setting [10]) was ≥ 75% in each case.

Regarding `N#Cc1ccc(C2=NOC(c3cc(Cl)cc(Cl)c3)(C(F)(F)F)C2)cc1-n1cncn1` [WO2011/073444 Table 3937, No. D-539, reference compound], the “B.5, 10 ppm” value in assay [1] stood at 0. Besides, the “B.6, 10 ppm” value in assay [6] stood at 0.

Take `N#Cc1cnn(-c2cccc(C3=NOC(c4cc(Cl)cc(Cl)c4)(C(F)(F)F)C3)c2)c1` (stereo not drawn) [WO2011/073444 Table C.1, No. I-4, reference compound]: the “B.5, 10 ppm” value in assay [1] is given as 0. Besides, in assay [6], the “B.6, 10 ppm” value worked out at 0.
